Assay [1] has as its system COS-7 cells. The experiment in a line: Cell migration through 8.0-μm porous Boyden chambers, gradient or uniform chemokine. In kind it is cell-based. As to conditions: for chemoattractant activity (directed cell migration toward a gradient) / random cell migration: COS-7, 8.0-μm pores; for random cell migration: uniform concentration. The method, then:
(§1) Pseudopodia extension was monitored using a pseudopodia assay kit (ECM 650; Chemicon International) or Costar chambers. Serum-starved cells (75,000) were placed into the upper compartment of a chamber ([…]) equipped with a 3.0-μm porous polycarbonate membrane coated on both sides with an optimal amount of ECM protein (5 μg/ml fibronectin or collagen type I). Cells were allowed to attach and spread on the upper surface of the membrane for 2 h, and then stimulated with LPA (Sigma-Aldrich), insulin, or buffer only, which was placed in the lower chamber to establish a gradient or placed in the upper and lower chamber to form a uniform concentration. Cells were allowed to extend pseudopodia through the pores toward the direction of the gradient for various times. To initiate pseudopodia retraction, the chemoattractant was removed or an equivalent amount of chemoattractant placed in the upper chamber to create a uniform concentration. The cell body on the upper surface was manually removed with a cotton swab and the total pseudopodia protein only on the undersurface was determined using BCA and a microprotein assay system (Pierce Chemical Co.). Additionally, pseudopodia can be stained with 1% crystal violet in 2% ethanol and then the dye eluted with 10% acetic acid, which can be measured in an ELISA plate reader (OD 600) for comparison to a standard curve as previously described (Klemke et al., 1998).
(§2) NIH 3T3 cells were examined for cell migration for 3 h in 8.0-μm porous Boyden chambers containing different concentrations of LPA or insulin placed in 1) the bottom, 2) top, or 3) top and bottom compartments. The number of migratory cells per microscopic field (200×) on the underside of the membrane was counted as described in Example 1 above. Additionally, COS-7 cells were examined for cell migration as described above with respect to NIH 3T3 cells. […] In FIG. 1, each point on the graphs represents the mean±SEM of three triplicate migration chambers of three independent experiments.

The test system of assay [2] is NIH 3T3 cells. Described as above. In kind it is cell-based, mouse. As to conditions: for chemoattractant activity (directed cell migration toward a gradient) / random cell migration: NIH 3T3, 8.0-μm pores; for chemoattractant activity (directed cell migration toward a gradient): 3 h; for random cell migration: uniform concentration. The method, then: as §1, §2
Assay [3] deals with NIH 3T3 cells. The experiment in a line: Pseudopodia extension through 3.0-μm porous membranes toward LPA. In kind it is cell-based, mouse. To be noted: 3.0-μm pores. How it is done:
as §1
NIH 3T3 cells were allowed to attach to fibronectin coated 3.0-μm porous membranes for 2 h. Pseudopodia extension was then examined for various times in the absence (NT) or presence of LPA (100 ng/ml) in the bottom, top, or top and bottom compartments. Pseudopodia protein on the underside of the membrane was determined as described in Example 1. Results are set forth in FIG. 2, where each point in the graphs represents the mean±SEM of three triplicate membranes of three independent experiments. COS-7 cells were examined for pseudopodia protrusion in the same manner as for NIH 3T3 cells as described above.
Confocal images of NIH 3T3 pseudopodia protrusion on the undersurface of a 3.0-μm porous membrane in response to LPA (100 ng/ml) as a gradient (LPA bottom) or uniform concentration (LPA top and bottom) were generated. Cells were labeled with cell tracker green and then fixed at the indicated times to visualize protruding pseudopodia on the undersurface of the membrane.

Assay [4] deals with NIH 3T3 cells. The experiment in a line: Pseudopodia retraction after removal of the LPA gradient. In kind it is cell-based, mouse. How it is done: as §1
Pseudopodia retraction was studied via the following methods. Pseudopodia extension of NIH 3T3 cells through 3.0-μm pores toward an LPA gradient was examined at 60, 120, 180 and 240 minutes, or the LPA gradient was removed after 60 min and pseudopodia were allowed to retract for the indicated times (LPA Removed). Total pseudopodia protein on the underside of the membrane was determined as described in Example 1.
Pseudopodia were allowed to extend for 60 min (time 0) toward an LPA gradient as described above. The gradient was then removed and pseudopodia were fixed at the indicated times (0, 30, 60, 120 minutes). […]

[5] abbreviates: listed as lysophosphatidic acid.
Where [6] appears, read: LPA gradient removed after 60 min extension.

For insulin, in assay [1], the “chemoattractant activity (directed cell migration toward a gradient)” value (“chemoattractant activity” for short) is on record as “poor chemoattractant” and the random cell migration result is “promoted random migration”. Also, in assay [2], the “chemoattractant activity” value is listed as “poor chemoattractant” and the random cell migration result is given as “promoted random migration”.

Consider lysophosphatidic acid [LPA], for which the “pseudopodia extension, gradient versus uniform concentration” value in assay [3] (LPA gradient but not uniform concentration) was “extend pseudopodia through small pores specifically in the direction of the gradient”. Further, in assay [3] (LPA gradient), the “time at which extension of pseudopodia was first detected after exposure to the gradient” value fell in the range of 10 to 15 min. Moreover, in assay [3] (LPA gradient), the “time over which pseudopodia extension proceeded linearly” value was in the range of 60 to 90 min. In assay [3] (LPA gradient, confocal microscope), the “cells polarized by extending pseudopodia” value was greater than 90%. Moreover, the “chemoattractant activity” value is “true chemoattractant” in assay [1]; “potent chemoattractant” in assay [1] (listed as LSA); “potent chemoattractant” in assay [1] (setting [5]); “true chemoattractant” in assay [2]; “potent chemoattractant” in assay [2] (listed as LSA); “potent chemoattractant” in assay [2] (setting [5]). Moreover, the random cell migration result in assay [1] and in assay [2] was “does not facilitate random cell migration” throughout. The “concentration at which chemotaxis reached a maximum” value in assay [1] (COS-7, dose dependent) was 100 to 200 ng/mL; in assay [2] (NIH 3T3, dose dependent), 100 to 200 ng/mL. In assay [4] (setting [6]), the “cells displaying pseudopodia retraction” value is listed as greater than 80%. Besides, the “onset of pseudopodia retraction after removing the gradient” value in assay [4] (setting [6]) is no more than 5 min. In addition, in assay [4] (LPA gradient restored after removal), the “effect of restoring the gradient on retracting pseudopodia” value was “inhibited the retraction process and induced pseudopodia growth”.

The values above are taken from patent publication US20030224398A1, “Purification of the leading front of migratory cells” (priority 2002, published 2003).
